Test results published in ChEMBL document CHEMBL2424545, “Structure-efficiency relationship of [1,2,4]triazol-3-ylamines as novel nicotinamide isosteres that inhibit tankyrases” (J Med Chem, 2013).
Converted amounts (≈) assume the structure as drawn.

tested on: not listed separately; experiment: Solubility of the compound at pH 6.8; assay type: physicochemical; conditions: buffer

solubility | SMILES
520 µM (≈ 146 µg/mL) | O=C(CCC1CCCCC1)Nc1nnc2n1CCS2
32 µM (≈ 9.88 µg/mL) | O=C(CCc1ccccc1Cl)Nc1nnc2n1CCS2

target: Poly [ADP-ribose] polymerase 2 (Homo sapiens, UniProt Q9UGN5); experiment: Inhibition of PARP2 (unknown origin) after 60 mins by LC-MS analysis; conditions: not given
Sequence (Q9UGN5 whole entry): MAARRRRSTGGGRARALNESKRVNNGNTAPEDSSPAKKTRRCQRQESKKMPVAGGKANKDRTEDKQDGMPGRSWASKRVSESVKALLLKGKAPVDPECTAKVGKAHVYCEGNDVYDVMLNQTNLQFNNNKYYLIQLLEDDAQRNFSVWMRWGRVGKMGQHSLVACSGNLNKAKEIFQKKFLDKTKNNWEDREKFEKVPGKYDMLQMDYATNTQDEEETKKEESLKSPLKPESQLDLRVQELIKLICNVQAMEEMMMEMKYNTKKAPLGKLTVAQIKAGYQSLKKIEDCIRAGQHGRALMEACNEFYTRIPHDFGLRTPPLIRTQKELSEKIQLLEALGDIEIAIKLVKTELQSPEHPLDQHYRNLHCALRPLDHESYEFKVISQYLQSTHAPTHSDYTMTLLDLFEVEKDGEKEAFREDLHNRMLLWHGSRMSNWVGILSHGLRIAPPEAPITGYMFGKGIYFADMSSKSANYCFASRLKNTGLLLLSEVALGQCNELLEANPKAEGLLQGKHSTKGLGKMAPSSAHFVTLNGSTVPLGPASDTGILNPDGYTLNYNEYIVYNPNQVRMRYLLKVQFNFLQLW

IC50 | SMILES
> 19000 nM | CC(C)(C)c1ccc(C(=O)Nc2nnc3n2CCCS3)cc1
3800 nM | O=C(CCc1cccc(Cl)c1Cl)Nc1nnc2n1CCS2

target: T1, Poly [ADP-ribose] polymerase tankyrase-1 (Homo sapiens, UniProt O95271); experiment: Inhibition of N-terminal GST-tagged human TNKS1 expressed in baculovirus infected sf21 cells after 60 mins by LC-MS analysis; conditions: not given
T1 sequence (O95271 whole entry): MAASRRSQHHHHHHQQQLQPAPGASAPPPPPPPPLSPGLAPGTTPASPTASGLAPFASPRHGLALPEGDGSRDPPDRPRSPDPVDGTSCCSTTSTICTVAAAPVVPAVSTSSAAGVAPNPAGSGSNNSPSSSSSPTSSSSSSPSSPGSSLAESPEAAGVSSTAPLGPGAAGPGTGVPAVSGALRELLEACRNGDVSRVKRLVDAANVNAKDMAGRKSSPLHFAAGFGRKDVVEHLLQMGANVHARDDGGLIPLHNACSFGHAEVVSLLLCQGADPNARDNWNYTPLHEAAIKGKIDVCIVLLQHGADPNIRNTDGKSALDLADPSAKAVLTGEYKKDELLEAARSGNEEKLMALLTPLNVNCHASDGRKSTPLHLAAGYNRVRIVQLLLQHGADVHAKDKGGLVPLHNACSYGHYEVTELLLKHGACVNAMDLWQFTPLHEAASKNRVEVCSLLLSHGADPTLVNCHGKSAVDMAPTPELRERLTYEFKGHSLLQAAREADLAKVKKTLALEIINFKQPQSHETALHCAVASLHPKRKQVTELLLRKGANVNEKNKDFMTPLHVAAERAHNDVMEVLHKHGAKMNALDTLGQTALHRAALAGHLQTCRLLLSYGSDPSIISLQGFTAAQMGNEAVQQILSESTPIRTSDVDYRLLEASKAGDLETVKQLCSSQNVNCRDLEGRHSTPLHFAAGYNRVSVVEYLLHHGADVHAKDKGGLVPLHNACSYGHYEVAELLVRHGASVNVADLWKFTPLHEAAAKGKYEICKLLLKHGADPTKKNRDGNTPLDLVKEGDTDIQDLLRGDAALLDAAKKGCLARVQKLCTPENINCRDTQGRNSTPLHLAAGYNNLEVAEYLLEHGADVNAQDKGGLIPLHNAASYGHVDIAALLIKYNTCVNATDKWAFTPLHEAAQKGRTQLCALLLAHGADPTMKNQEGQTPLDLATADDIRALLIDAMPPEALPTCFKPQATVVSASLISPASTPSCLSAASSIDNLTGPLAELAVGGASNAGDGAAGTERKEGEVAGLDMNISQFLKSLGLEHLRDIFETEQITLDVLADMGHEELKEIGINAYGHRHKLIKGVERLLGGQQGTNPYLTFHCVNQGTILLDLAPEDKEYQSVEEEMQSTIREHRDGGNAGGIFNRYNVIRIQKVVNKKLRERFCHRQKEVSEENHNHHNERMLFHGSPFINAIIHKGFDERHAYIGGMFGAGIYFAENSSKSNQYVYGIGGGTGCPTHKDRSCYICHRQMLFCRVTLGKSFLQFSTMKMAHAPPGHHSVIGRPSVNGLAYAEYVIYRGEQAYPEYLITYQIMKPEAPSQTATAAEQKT

IC50 | SMILES
32 nM | O=C(CCC1CCCCC1)Nc1nnc2n1CCS2
14 nM | O=C(CCc1ccccc1Cl)Nc1nnc2n1CCS2
7 nM | O=C(CCc1cccc(Cl)c1Cl)Nc1nnc2n1CCS2

target: Poly [ADP-ribose] polymerase 1 (Homo sapiens, UniProt P09874); experiment: not given; conditions: not given
Sequence (P09874 whole entry): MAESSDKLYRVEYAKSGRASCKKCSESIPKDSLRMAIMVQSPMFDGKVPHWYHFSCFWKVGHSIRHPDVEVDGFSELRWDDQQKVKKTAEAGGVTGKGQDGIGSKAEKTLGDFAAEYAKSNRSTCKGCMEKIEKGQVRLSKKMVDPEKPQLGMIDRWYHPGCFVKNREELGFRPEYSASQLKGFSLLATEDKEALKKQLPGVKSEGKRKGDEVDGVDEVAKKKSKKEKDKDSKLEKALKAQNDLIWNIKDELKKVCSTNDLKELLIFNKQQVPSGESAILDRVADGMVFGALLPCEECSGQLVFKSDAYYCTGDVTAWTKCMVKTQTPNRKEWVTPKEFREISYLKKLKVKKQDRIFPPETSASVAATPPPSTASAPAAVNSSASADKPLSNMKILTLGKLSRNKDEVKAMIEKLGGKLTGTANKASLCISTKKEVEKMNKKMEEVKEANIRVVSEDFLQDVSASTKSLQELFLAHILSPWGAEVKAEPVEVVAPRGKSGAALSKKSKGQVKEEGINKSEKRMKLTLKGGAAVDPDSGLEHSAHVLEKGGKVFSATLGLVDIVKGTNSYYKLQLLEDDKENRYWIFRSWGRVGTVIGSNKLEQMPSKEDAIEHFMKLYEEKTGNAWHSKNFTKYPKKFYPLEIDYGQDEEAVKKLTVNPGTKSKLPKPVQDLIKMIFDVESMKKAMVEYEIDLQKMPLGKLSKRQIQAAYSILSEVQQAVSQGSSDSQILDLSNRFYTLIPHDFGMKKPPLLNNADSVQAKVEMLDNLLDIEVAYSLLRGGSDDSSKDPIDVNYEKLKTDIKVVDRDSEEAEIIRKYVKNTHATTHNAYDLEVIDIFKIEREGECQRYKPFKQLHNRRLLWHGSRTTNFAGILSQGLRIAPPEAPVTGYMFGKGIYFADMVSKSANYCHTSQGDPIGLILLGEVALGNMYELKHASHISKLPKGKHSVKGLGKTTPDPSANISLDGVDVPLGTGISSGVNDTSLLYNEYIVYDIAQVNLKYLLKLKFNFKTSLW

IC50 | SMILES
> 19000 nM | O=C(CCc1cccc(Cl)c1Cl)Nc1nnc2n1CCS2

tested on: not listed separately; experiment: Inhibition of TNKS in human SW480 cells assessed as stabilization of axin2 after 24 hrs by ELISA; assay type: cell-based; conditions: not given

IC50 | SMILES
> 10000 nM | O=C(CCC1CCCCC1)Nc1nnc2n1CCS2
1400 nM | O=C(CCc1ccccc1Cl)Nc1nnc2n1CCS2
> 10000 nM | O=C(CCc1cccc(Cl)c1Cl)Nc1nnc2n1CCS2

target: T2, Poly [ADP-ribose] polymerase tankyrase-2 (Homo sapiens, UniProt Q9H2K2); experiment: Inhibition of N-terminal GST-tagged TNKS2 (unknown origin) expressed in baculovirus infected sf21 cells after 60 mins by LC-MS analysis; conditions: not given
T2 sequence (Q9H2K2 whole entry): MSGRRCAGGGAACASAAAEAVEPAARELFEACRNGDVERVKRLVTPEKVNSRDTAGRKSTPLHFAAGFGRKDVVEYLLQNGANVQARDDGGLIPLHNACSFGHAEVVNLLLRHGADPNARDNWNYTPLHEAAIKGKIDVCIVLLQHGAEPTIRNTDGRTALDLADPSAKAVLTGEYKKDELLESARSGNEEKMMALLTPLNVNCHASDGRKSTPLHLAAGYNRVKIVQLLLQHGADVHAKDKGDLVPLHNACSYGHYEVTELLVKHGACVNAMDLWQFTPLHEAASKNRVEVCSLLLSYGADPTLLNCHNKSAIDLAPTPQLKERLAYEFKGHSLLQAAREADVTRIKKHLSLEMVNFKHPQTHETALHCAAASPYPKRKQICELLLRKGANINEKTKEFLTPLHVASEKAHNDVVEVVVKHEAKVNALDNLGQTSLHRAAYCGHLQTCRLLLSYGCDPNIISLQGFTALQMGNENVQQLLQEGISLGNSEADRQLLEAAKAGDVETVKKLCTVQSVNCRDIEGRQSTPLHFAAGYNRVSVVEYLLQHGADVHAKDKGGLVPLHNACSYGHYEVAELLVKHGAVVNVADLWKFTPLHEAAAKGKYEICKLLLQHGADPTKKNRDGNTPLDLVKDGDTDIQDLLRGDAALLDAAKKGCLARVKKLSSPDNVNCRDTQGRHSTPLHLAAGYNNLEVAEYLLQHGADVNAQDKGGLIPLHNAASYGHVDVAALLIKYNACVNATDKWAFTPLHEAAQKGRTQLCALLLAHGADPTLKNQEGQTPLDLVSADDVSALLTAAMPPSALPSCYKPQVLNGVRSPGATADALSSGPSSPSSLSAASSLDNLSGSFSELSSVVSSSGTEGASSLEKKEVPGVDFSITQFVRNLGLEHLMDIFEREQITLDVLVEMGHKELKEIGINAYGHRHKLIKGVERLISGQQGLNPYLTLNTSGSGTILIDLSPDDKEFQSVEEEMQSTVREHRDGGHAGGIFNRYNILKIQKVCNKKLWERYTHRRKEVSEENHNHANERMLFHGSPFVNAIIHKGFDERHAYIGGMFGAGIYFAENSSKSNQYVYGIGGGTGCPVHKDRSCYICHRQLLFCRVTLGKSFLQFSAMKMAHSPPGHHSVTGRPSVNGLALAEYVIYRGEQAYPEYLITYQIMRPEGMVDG

IC50 | SMILES
353 nM | CC(C)(C)c1ccc(C(=O)Nc2nnc3n2CCCS3)cc1
8 nM | O=C(CCC1CCCCC1)Nc1nnc2n1CCS2
5 nM | O=C(CCc1ccccc1Cl)Nc1nnc2n1CCS2
1 nM | O=C(CCc1cccc(Cl)c1Cl)Nc1nnc2n1CCS2

tested on: not listed separately; experiment: Hepatic extraction ratio in human liver microsomes; assay type: ADME, Microsome; conditions: read-out: ERH

hepatic extraction ratio | SMILES
0.2 | O=C(CCC1CCCCC1)Nc1nnc2n1CCS2
0.66 | O=C(CCc1ccccc1Cl)Nc1nnc2n1CCS2

tested on: not listed separately; experiment: Hepatic extraction ratio in mouse liver microsomes; assay type: ADME, Microsome; conditions: read-out: ERH

hepatic extraction ratio | SMILES
0.95 | O=C(CCC1CCCCC1)Nc1nnc2n1CCS2
0.9 | O=C(CCc1ccccc1Cl)Nc1nnc2n1CCS2
0.92 | O=C(CCc1cccc(Cl)c1Cl)Nc1nnc2n1CCS2

tested on: not listed separately; experiment: Inhibition of Wnt signaling in human HEK293 cells by STF luciferase reporter gene assay; conditions: not given

IC50 | SMILES
47800 nM | CC(C)(C)c1ccc(C(=O)Nc2nnc3n2CCCS3)cc1
169 nM | O=C(CCC1CCCCC1)Nc1nnc2n1CCS2
50 nM | O=C(CCc1ccccc1Cl)Nc1nnc2n1CCS2
20 nM | O=C(CCc1cccc(Cl)c1Cl)Nc1nnc2n1CCS2
